Patent US6468995B1, “Cephem compounds” (Fujisawa Pharmaceutical Co., Ltd., priority 1993, dated 2002)

Assay: Stability test of the crystal
Type: physicochemical
Settings: crystal containing 1/3 isopropanol

stability in the stability test: stable
SMILES: Nc1nc(/C(=N/O)C(=O)N[C@@H]2C(=O)N3C(C(=O)O)=C(SCc4cn[nH]c4)CS[C@H]23)cs1 [Example 37, 7β-[2-(2-aminothiazol-4-yl)-2-(Z)-(hydroxyimino)acetamido]-3-[(pyrazol-4-yl)methylthio]-3-cephem-4-carboxylic acid containing 1/3 isopropanol]
